Reference: patent US11691969B2, “Pyridazinones as PARP7 inhibtors” (Ribon Therapeutics, Inc., priority 2019, dated 2023)

molecular target: PARP7 (Homo sapiens (Human), UniProt Q7Z3E1); assay: TR-FRET assay: displacement of biotinylated Probe A from the TIPARP active site (Enzymatic Assay for Inhibition of PARP7); format: binding; conditions: TIPARP 6 nM, Probe A 2 nM, 25° C.
Experimental: Example A. Enzymatic Assay for Inhibition of PARP7
Displacement of Probe A, a biotinylated probe binding to the TIPARP active site, was measured using a time-resolved fluorescence energy transfer (TR-FRET) assay. 20 nL of a dose response curve of each test compound was spotted in black 384-well polystyrene proxiplates (Perkin Elmer) using a Mosquito (TTP Labtech). Reactions were performed in a 8 μl volume by adding 6 μL of TIPARP and Probe A in assay buffer (20 mM HEPES pH=8, 100 mM NaCl, 0.1% bovine serum albumin, 2 mM DTT and 0.002% Tween20), incubating with test compound at 25° C. for 30 min, then adding 2 μL of ULight-anti 6×His and LANCE Eu-W1024 labeled streptavidin (Perkin Elmer). The final concentrations of TIPARP and Probe A were 6 nM and 2 nM, respectively. The final concentration of ULight-anti 6×His and LANCE Eu-W1024 labeled streptavidin were 4 nM and 0.25 nM, respectively. Reactions were incubated at 25° C. for an additional 30 min, then read on an Envision platereader equipped with a LANCE/DELFIA top mirror (Perkin Elmer) using excitation of 320 nm and emission of 615 nm and […] with a […]. The ratio of the 665/615 nm emission were calculated for each well to determine the amount of complex of TIPARP and Probe Ain each well. Control wells containing a negative control of 0.25% DMSO vehicle or a positive control of 100 μM 5-(5-(piperidin-4-yloxy)isoindolin-2-yl)-4-(trifluoromethyl)pyridazin-3(2H)-one were used to calculate the % inhibition as described below:
[formula] where TRFcmpd is the TR-FRET ratio from the compound treated well, TRFmin is the TR-FRET ratio from the 5-(5-(piperidin-4-yloxy)isoindolin-2-yl)-4-(trifluoromethyl)pyridazin-3(2H)-one—treated positive control well and TRFmax is the TR-FRET ratio from the DMSO-treated negative control well. The % inhibition values were plotted as a function of compound concentration and the following 4-parameter fit was applied to derive the IC50 values:
[formula] where top and bottom are normally allowed to float, but may be fixed at 100 or 0 respectively in a 3-parameter fit. The Hill Coefficient is normally allowed to float but may also be fixed at 1 in a 3-parameter fit. Y is the % inhibition and X is the compound concentration. Synthesis of Probe A

Sequence of PARP7 (Q7Z3E1 whole entry): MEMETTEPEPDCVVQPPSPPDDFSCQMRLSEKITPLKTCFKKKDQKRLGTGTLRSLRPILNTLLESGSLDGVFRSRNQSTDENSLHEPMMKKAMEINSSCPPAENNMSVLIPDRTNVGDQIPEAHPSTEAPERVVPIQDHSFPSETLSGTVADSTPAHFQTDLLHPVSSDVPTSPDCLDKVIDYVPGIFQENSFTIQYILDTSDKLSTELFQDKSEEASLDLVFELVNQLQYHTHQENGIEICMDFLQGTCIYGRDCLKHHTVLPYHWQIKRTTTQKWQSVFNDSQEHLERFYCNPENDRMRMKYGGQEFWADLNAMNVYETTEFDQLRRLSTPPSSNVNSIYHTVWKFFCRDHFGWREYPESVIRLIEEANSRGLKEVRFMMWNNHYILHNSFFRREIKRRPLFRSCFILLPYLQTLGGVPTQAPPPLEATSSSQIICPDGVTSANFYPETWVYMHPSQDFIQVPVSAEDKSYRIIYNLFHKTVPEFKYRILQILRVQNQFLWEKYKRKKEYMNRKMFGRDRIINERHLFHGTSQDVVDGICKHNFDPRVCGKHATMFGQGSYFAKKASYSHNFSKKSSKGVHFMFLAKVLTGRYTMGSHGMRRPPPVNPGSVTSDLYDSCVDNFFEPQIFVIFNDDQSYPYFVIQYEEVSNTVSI

SMILES | IC50 [nM]
C[C@@H](CO[C@H]1CCN(C2CCN(c3ccc(C#N)cn3)CC2)C1=O)Nc1cn[nH]c(=O)c1C(F)(F)F [Example 14A, 6-(4-((S)-2-oxo-3-((S)-2-((6-oxo-5-(trifluoromethyl)-1,6-dihydropyridazin-4-yl)amino)propoxy)pyrrolidin-1-yl)piperidin-1-yl)nicotinonitrile] | ≥ 1000
C[C@@H](COCC(=O)N(C)C1CCN(c2ccc(C#N)cn2)CC1)Nc1cn[nH]c(=O)c1C(F)(F)F [Example 6, (S)—N-(1-(5-cyanopyridin-2-yl)piperidin-4-yl)-N-methyl-2-(2-((6-oxo-5-(trifluoromethyl)-1,6-dihydropyridazin-4-yl)amino)propoxy)acetamide] | < 100
C[C@@H](CO[C@H]1CCCN(C2CCN(c3ncc(C(F)(F)F)cn3)CC2)C1=O)Nc1cn[nH]c(=O)c1C(F)(F)F [Example 34A, (S)-3-((S)-2-((6-oxo-5-(trifluoromethyl)-1,6-dihydropyridazin-4-yl)amino)propoCyxy)-1′-(5-(trifluoromethyl)pyrimidin-2-yl)-[1,4′-bipiperidin]-2-one] | < 100
C[C@@H](COCC(=O)N(C)C1CCN(c2ncc(C(F)(F)F)s2)CC1)Nc1cn[nH]c(=O)c1C(F)(F)F [Example 3, (S)—N-methyl-2-(2-((6-oxo-5-(trifluoromethyl)-1,6-dihydropyridazin-4-yl)amino)propoxy)-N-(1-(5-(trifluoromethyl)thiazol-2-yl)piperidin-4-yl)acetamide] | < 100
C[C@@H](CO[C@@H]1CCN([C@H]2CCN(c3ncc(C(F)(F)F)cn3)C[C@H]2F)C1=O)Nc1cn[nH]c(=O)c1C(F)(F)F (single isomer, unassigned) [Example 39B] | < 100
C[C@@H](COCC(=O)N[C@@H]1CCN(c2ncc(C(F)(F)F)cn2)C[C@H]1O)Nc1cn[nH]c(=O)c1C(F)(F)F (single isomer, unassigned) [Example 33A] | < 100
C[C@@H](CO[C@@H]1CCN(C2CCN(c3ncc(C(F)(F)F)cn3)CC2C#N)C1=O)Nc1cn[nH]c(=O)c1C(F)(F)F (stereo partly drawn) [Example 69, 4-((R)-2-oxo-3-((S)-2-((6-oxo-5-(trifluoromethyl)-1,6-dihydropyridazin-4-yl)amino)propoxy)pyrrolidin-1-yl)-1-(5-(trifluoromethyl)pyrimidin-2-yl)piperidine-3-carbonitrile] | < 100
C[C@@H](CN[C@@H]1CCN(C2CCN(c3ncc(C(F)(F)F)cn3)CC2)C1=O)Nc1cn[nH]c(=O)c1C(F)(F)F [Example 26B, 5-(((S)-1-(((R)-2-oxo-1-(1-(5-(trifluoromethyl)pyrimidin-2-yl)piperidin-4-yl)pyrrolidin-3-yl)amino)propan-2-yl)amino)-4-(trifluoromethyl)pyridazin-3(2H)-one] | < 100
O=C1[C@H](OC[C@H](CO)Nc2cn[nH]c(=O)c2C(F)(F)F)CCN1C1CCN(c2ncc(C(F)(F)F)cn2)CC1 [Example 63, 5-(((S)-1-hydroxy-3-(((R)-2-oxo-1-(1-(5-(trifluoromethyl)pyrimidin-2-yl)piperidin-4-yl)pyrrolidin-3-yl)oxy)propan-2-yl)amino)-4-(trifluoromethyl)pyridazin-3(2H)-one] | < 100
C[C@@H](CO[C@H]1C(=O)N(C2CCN(c3ncc(C(F)(F)F)cn3)CC2)CC1(C)C)Nc1cn[nH]c(=O)c1C(F)(F)F [Example 35B, 5-(((S)-1-(((R)-4,4-dimethyl-2-oxo-1-(1-(5-(trifluoromethyl)pyrimidin-2-yl)piperidin-4-yl)pyrrolidin-3-yl)oxy)propan-2-yl)amino)-4-(trifluoromethyl)pyridazin-3(2H)-one] | < 100
COC[C@@H](CO[C@H]1CCN(C2CCN(c3ccc(C#N)cn3)CC2)C1=O)Nc1cn[nH]c(=O)c1C(F)(F)F [Example 17A, 6-(4-((S)-3-((S)-3-methoxy-2-((6-oxo-5-(trifluoromethyl)-1,6-dihydropyridazin-4-yl)amino)propoxy)-2-oxopyrrolidin-1-yl)piperidin-1-yl)nicotinonitrile] | 100 to 1000
COC[C@@H](CO[C@@H]1CCN(C2CCN(c3ncc(C#N)s3)CC2)C1=O)Nc1cn[nH]c(=O)c1C(F)(F)F [Example 54, 2-(4-((R)-3-((S)-3-methoxy-2-((6-oxo-5-(trifluoromethyl)-1,6-dihydropyridazin-4-yl)amino)propoxy)-2-oxopyrrolidin-1-yl)piperidin-1-yl)thiazole-5-carbonitrile] | < 100
C[C@@H](CO[C@@H]1CCN([C@@H]2CCN(c3ncc(C(F)(F)F)cn3)C[C@@H]2F)C1=O)Nc1cn[nH]c(=O)c1C(F)(F)F (single isomer, unassigned) [Example 39A] | < 100
C[C@@H](CO[C@@H]1CCN([C@H]2CCN(c3ncc(C(F)(F)F)cn3)C[C@@H]2F)C1=O)Nc1cn[nH]c(=O)c1C(F)(F)F (single isomer, unassigned) [Example 38B] | < 100
C[C@@H](CO[C@@H]1CCCN(C2CCN(c3ncc(C(F)(F)F)cn3)CC2)C1=O)Nc1cn[nH]c(=O)c1C(F)(F)F [Example 34B, (R)-3-((S)-2-((6-oxo-5-(trifluoromethyl)-1,6-dihydropyridazin-4-yl)amino)propoxy)-1′-(5-(trifluoromethyl)pyrimidin-2-yl)-[1,4′-bipiperidin]-2-one] | < 100
C[C@H](CN[C@H]1CCN(C2CCN(c3ncc(C(F)(F)F)cn3)CC2)C1=O)Nc1cn[nH]c(=O)c1C(F)(F)F (single isomer, unassigned) [Example 26C] | ≥ 1000

Results, then the compound that gave them:

IC50 [nM] | SMILES
100 to 1000 | COC[C@@H](CO[C@H]1CCN(C2CCN(c3ncc(C(F)(F)F)cn3)CC2)C1=O)Oc1cn[nH]c(=O)c1C(F)(F)F [Example 51A, 5-(((S)-1-methoxy-3-(((S)-2-oxo-1-(1-(5-(trifluoromethyl)pyrimidin-2-yl)piperidin-4-yl)pyrrolidin-3-yl)oxy)propan-2-yl)oxy)-4-(trifluoromethyl)pyridazin-3(2H)-one]
100 to 1000 | COC[C@@H](CO[C@H]1CCN(C2CCN(c3ncc(C)cn3)CC2)C1=O)Oc1cn[nH]c(=O)c1C(F)(F)F [Example 52A, 5-(((S)-1-methoxy-3-(((S)-1-(1-(5-methylpyrimidin-2-yl)piperidin-4-yl)-2-oxopyrrolidin-3-yl)oxy)propan-2-yl)oxy)-4-(trifluoromethyl)pyridazin-3(2H)-one]
< 100 | COC[C@@H](CO[C@@H]1CCN(C2CCN(c3ncc(C)cn3)CC2)C1=O)Oc1cn[nH]c(=O)c1C(F)(F)F [Example 52B, 5-(((S)-1-methoxy-3-(((R)-1-(1-(5-methylpyrimidin-2-yl)piperidin-4-yl)-2-oxopyrrolidin-3-yl)oxy)propan-2-yl)oxy)-4-(trifluoromethyl)pyridazin-3(2H)-one]
< 100 | C[C@@H](CO[C@@H]1CCN(C2CCN(c3ncc(Cl)cn3)CC2)C1=O)Nc1cn[nH]c(=O)c1C(F)(F)F [Example 16, 5-(((S)-1-(((R)-1-(1-(5-chloropyrimidin-2-yl)piperidin-4-yl)-2-oxopyrrolidin-3-yl)oxy)propan-2-yl)amino)-4-(trifluoromethyl)pyridazin-3(2H)-one]
< 100 | Cc1cnc(N2CCC(N3CC[C@@H](OC[C@H](C)Oc4cn[nH]c(=O)c4C(F)(F)F)C3=O)CC2)nc1 [Example 49B, 5-(((S)-1-(((R)-1-(1-(5-methylpyrimidin-2-yl)piperidin-4-yl)-2-oxopyrrolidin-3-yl)oxy)propan-2-yl)oxy)-4-(trifluoromethyl)pyridazin-3(2H)-one]
< 100 | C[C@@H](COC1CCN(C2CCN(c3ccc(C#N)cn3)CC2)C1=O)Oc1cn[nH]c(=O)c1C(F)(F)F (stereo partly drawn) [Example 30, 6-(4-(2-oxo-3-((S)-2-((6-oxo-5-(trifluoromethyl)-1,6-dihydropyridazin-4-yl)oxy)propoxy)pyrrolidin-1-yl)piperidin-1-yl)nicotinonitrile]
< 100 | C[C@@H](CO[C@@H]1CCN(C2CCN(c3ncc(C(F)(F)F)cn3)CC2)C1=O)Oc1cn[nH]c(=O)c1Cl [Example 47B, 4-chloro-5-(((S)-1-(((R)-2-oxo-1-(1-(5-(trifluoromethyl)pyrimidin-2-yl)piperidin-4-yl)pyrrolidin-3-yl)oxy)propan-2-yl)oxy)pyridazin-3(2H)-one]
< 100 | Cc1cnc(N2CCC(N3CC[C@@H](OC[C@H](C)Nc4cn[nH]c(=O)c4C(F)(F)F)C3=O)CC2)nc1 [Example 44, 5-(((S)-1-(((R)-1-(1-(5-methylpyrimidin-2-yl)piperidin-4-yl)-2-oxopyrrolidin-3-yl)oxy)propan-2-yl)amino)-4-(trifluoromethyl)pyridazin-3(2H)-one]
